Results on 15 compounds are retold here after US10584115B2, “Substituted pyridine and pyrazine BMI-1 inhibitors” (PTC Therapeutics, Inc., priority 2013, dated 2020).

A word on the EC50: it is the concentration that produces a half-maximal response.

In one assay the test system is Bmi-1 protein. Nature of the assay: Sandwich ELISA Assay (Bmi-1 protein level in HT-1080 cells after compound treatment). Format: cell-based. Conditions: Table 1, Bmi-1 sandwich ELISA, read-out: ELISA EC50 value for Bmi-1 protein. Put shortly:
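Sandwich ELISA quantified Bmi-1 protein against recombinant standard (125–8000 pg/mL), with lysates captured overnight at 4 °C and signal by HRP/TMB at 450 nm (570 nm reference). Lysates came from HT-1080 cells incubated 40–48 h with test compounds in 0.5% DMSO.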
A general note: An ELISA detects its analyte on a solid surface through an enzyme-linked reagent.
`COc1ccc(Nc2cncc(-c3c(C(F)(F)F)nc4ccccn34)n2)cc1F` [Cpd 7, N-(3-fluoro-4-methoxyphenyl)-6-[2-(trifluoromethyl)imidazo[1,2-a]pyridin-3-yl]pyrazin-2-amine]: the EC50 is under 0.001 µM. Still for that read-out and setting: then `FC(F)Oc1ccc(Nc2cccc(-n3c(C(F)(F)F)nc4ccccc43)n2)cc1` [Cpd 38, N-[4-(difluoromethoxy)phenyl]-6-[2-(trifluoromethyl)-1H-benzimidazol-1-yl]pyridin-2-amine], with 0.01 to 0.1 µM; and `FC(F)Oc1ccc(Nc2cncc(-c3c(C(F)(F)F)nc4sccn34)n2)cc1` [compound 121, N-[4-(difluoromethoxy)phenyl]-6-[6-(trifluoromethyl)imidazo[2,1-b][1,3]thiazol-5-yl]pyrazin-2-amine], with 0.001 to 0.01 µM; and `Cc1cc(C)c2nc(C)n(-c3cncc(Nc4ccc(C(F)(F)F)cc4)n3)c2c1` [Cpd 421, N-[4-(trifluoromethyl)phenyl]-6-(2,4,6-trimethyl-1H-benzimidazol-1-yl)pyrazin-2-amine], with 0.01 to 0.1 µM. Still for that read-out and setting: the result for `CCO/C=C\c1cn(-c2cncc(Nc3ccc(C(F)(F)F)cc3)n2)c(C)n1` [Cpd 391, 6-{4-[(Z)-2-ethoxyethenyl]-2-methyl-1H-imidazol-1-yl}-N-[4-(trifluoromethyl)phenyl]pyrazin-2-amine] reads 0.1 to 3 µM; that for `COc1ccc(Nc2cc(C#N)cc(-n3c(C)nc4cc(F)c(F)cc43)n2)cc1` [compound 583, 2-(5,6-difluoro-2-methyl-1H-benzimidazol-1-yl)-6-[(4-methoxyphenyl)amino]pyridine-4-carbonitrile], 0.001 to 0.01 µM. As to `Cc1nc2cccc(F)c2n1-c1cncc(Nc2ccc(C(F)(F)F)cc2)n1` [compound 358, 6-(7-fluoro-2-methyl-1H-benzimidazol-1-yl)-N-[4-(trifluoromethyl)phenyl]pyrazin-2-amine], the EC50 lay within 0.01 to 0.1 µM. As for `N#Cc1cc(Nc2ccc(OC(F)(F)F)cc2)nc(-c2c(C(F)(F)F)nc3ccccn23)c1` [compound 218, 2-{[4-(trifluoromethoxy)phenyl]amino}-6-[2-(trifluoromethyl)imidazo[1,2-a]pyridin-3-yl]pyridine-4-carbonitrile], the EC50 fell in the range of 0.01 to 0.1 µM. `Cc1nc2ccccc2n1-c1cncc(Nc2ccc(C(F)(F)F)cn2)n1` [compound 457, 6-(2-methyl-1H-benzimidazol-1-yl)-N-[5-(trifluoromethyl)pyridin-2-yl]pyrazin-2-amine]: the EC50 lay in the range of 0.1 to 3 µM. Regarding `Cc1nn(C)c(Cl)c1-c1cncc(Nc2ccc(OC(F)F)cc2)n1` [compound 413, 6-(5-chloro-1,3-dimethyl-1H-pyrazol-4-yl)-N-[4-(difluoromethoxy)phenyl]pyrazin-2-amine], the EC50 was in the range of 0.001 to 0.01 µM. On to `Cc1nc2ccc(Cl)cc2n1-c1cncc(Nc2ccc(C(F)(F)F)cc2)n1` [compound 240, 6-(6-chloro-2-methyl-1H-benzimidazol-1-yl)-N-[4-(trifluoromethyl)phenyl]pyrazin-2-amine], for which the EC50 lay in the range of 0.01 to 0.1 µM. Still for that read-out and setting: then `Cc1nc2ccccc2n1-c1cc(N)cc(Nc2ccc(OC(F)(F)F)cc2)n1` [compound 604], with 0.1 to 3 µM. Same read-out and setting: the result for `Cc1nc2ccccc2n1-c1cc(N)cc(Nc2ccc(F)cc2)n1` [compound 605, N^2-(4-fluorophenyl)-6-(2-methyl-1H-benzimidazol-1-yl)pyridine-2,4-diamine] reads 0.1 to 3 µM. On to `Fc1cc(Nc2cncc(-c3c(C(F)(F)F)nc4ccccn34)n2)ccc1OC(F)F` [compound 323, N-[4-(difluoromethoxy)-3-fluorophenyl]-6-[2(trifluoromethyl)imidazo[1,2-a]pyridin-3-yl]pyrazin-2-amine], for which the EC50 fell in the range of 0.001 to 0.01 µM.

Staying with this assay, now noted: read-out: ELISA EC50 value for Bmi-1 protein, Table 1, Bmi-1 sandwich ELISA.
Take `N#Cc1cc(Nc2ccc(C(F)(F)F)cc2)nc(-c2c(C(F)(F)F)nc3n2CCCC3)c1` [Cpd 236, 2-{[4-(trifluoromethyl)phenyl]amino}-6-[2-(trifluoromethyl)-5,6,7,8-tetrahydroimidazo[1,2-a]pyridin-3-yl]pyridine-4-carbonitrile]: the EC50 was in the range of 0.01 to 0.1 µM.
